Measured values reported in patent publication US8642510B2, “Inhibitors for brassinosteroid signalling” (GMI-Gregor Mendel-Institut fuer Molekulare Pflanzenbiologie …, priority 2008, dated 2014).
“Also recorded” adds a separate entry of the source.

Target: T1, ASKζ (Arabidopsis thaliana, UniProt Q39010)
T1 construct: expressed in transfected cells; host or cells: A. thaliana protoplasts
T1 sequence (Q39010 1-412): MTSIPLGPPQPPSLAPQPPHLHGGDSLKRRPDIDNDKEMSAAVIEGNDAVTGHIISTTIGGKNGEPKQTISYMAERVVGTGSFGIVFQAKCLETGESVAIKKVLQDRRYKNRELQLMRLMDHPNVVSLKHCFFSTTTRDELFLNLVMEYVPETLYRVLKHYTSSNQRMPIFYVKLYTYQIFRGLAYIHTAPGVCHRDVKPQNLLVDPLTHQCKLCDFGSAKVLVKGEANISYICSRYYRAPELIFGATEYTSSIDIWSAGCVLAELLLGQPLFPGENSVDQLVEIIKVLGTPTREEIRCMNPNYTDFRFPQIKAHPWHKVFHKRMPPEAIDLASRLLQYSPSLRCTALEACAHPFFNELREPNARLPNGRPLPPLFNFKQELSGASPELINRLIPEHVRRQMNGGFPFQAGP
Test: In vivo kinase assay, BZR1-CFP phosphorylation band-shift in protoplasts
Type: cell-based, A. thaliana
Conditions: protoplasts co-transformed with BZR1-CFP and Myc-tagged ASK; increasing concentrations
From the text: A. thaliana protoplasts were co-transformed with expression constructs of BZR1-CFP and Myc-tagged ASKζ and treated with increasing concentrations of compounds 10 and 15. […] and ASKζ-Myc were detected by western blot analysis using polyclonal anti-GFP and monoclonal anti-Myc antibodies, respectively. A Coomassie R250 stain is shown as a loading control. Depending on the ASKζ kinase activity BZR1-CFP can be observed in a phosphorylated or unphosphorylated form (indicated by arrows). The ratio of the two ASKζ-Myc bands, indicating posttranslational modification of this protein, were not affected by inhibitor application.
ASKs were expressed as GST-fusion proteins in E. coli BL21. […] The reaction products were separated by SDS-PAGE and the amount of radioactivity incorporated into MBP quantified using an Amersham storage phosphor imager screen and a Biorad Molecular Imager FX. In vivo kinase activity was detected by phosphorylation band-shift assays using BZR1-CFP as substrate.
Because of this unexpected result, the effect of the inhibitions on the in vivo ASK activity was analysed by a direct method. […] Transformed protoplasts were incubated with different concentrations of compounds 10 and 15 and BZR1-CFP and […] and subsequently analysed by western blotting.

SMILES: COC(=O)CCC(=O)Nc1ccc(I)cn1 [Compound 10, 4-[(5-iodopyrid-2-yl)amino]-4-oxobutanoic acid methyl ester]
- Inhibition of in vivo ASK activity (BZR1-CFP phosphorylation shift): potent inhibitors in vivo; also recorded: highly active
